Measured values reported in ChEMBL document CHEMBL1141133, “Synthesis of a resveratrol analogue with high ceramide-mediated proapoptotic activity on human breast cancer cells” (J Med Chem, 2005).

What follows are compounds tested on MDA-MB-231 (assay: Inhibitory concentration required for antiproliferative activity against human MDA-MB-231 cells).
Type: functional, cell-based

| IC50 | Compound |
| --- | --- |
| 10 µM | COc1cc(/C=C/c2ccc(O)cc2)cc(OC)c1 [PTEROSTILBENE] |
| 7.2 µM | COc1cc(OC)cc(-c2ccc3cc(O)ccc3c2)c1 |
| 45.1 µM | COc1cc(OC)cc(-c2ccc3cc(OC)ccc3c2)c1 |
| 12.7 µM | Oc1cc(O)cc(-c2ccc3cc(O)ccc3c2)c1 |
| 28.3 µM | COc1ccc2cc(-c3cc(O)cc(O)c3)ccc2c1 |
| 20.5 µM | Oc1ccc(/C=C/c2cc(O)cc(O)c2)cc1 [RESVERATROL] |

| Compound | IC50 |
| --- | --- |
| COc1ccc(/C=C/c2cc(O)cc(O)c2)cc1 [RESVERATROL 4'-METHYL ETHER] | > 50 µM |
| COc1ccc(/C=C/c2cc(OC)cc(OC)c2)cc1 [TRISMETHOXYRESVERATROL] | 1.2 µM |
